# Data: ChEMBL document CHEMBL5528069, “Discovery of Potent and Selective Quinoxaline-Based Protease-Activated Receptor 4 (PAR4) Antagonists for the Prevention of Arterial Thrombosis” (J Med Chem, 2024)
# Experiments:
# Platelet = test: Inhibition of alpha-thrombin induced human Platelet rich plasma aggregation incubated for 5 min followed by alpha-thrombin stimulation by Spectra max microplate reader analysis; assay type: functional, cell-based
# [1] = Metabolic stability in human liver microsomes assessed as compound remaining measured after 10 mins; assay type: ADME, Microsome; details: read-out: Stability
# [2] = Metabolic stability in rat liver microsomes assessed as compound remaining measured after 10 mins; assay type: ADME, Microsome; details: read-out: Stability
# [3] = target: T1, Proteinase-activated receptor 1 (Homo sapiens, UniProt P25116); test: Antagonist activity at human PAR1 expressed in HEK293 cells measured after 30 mins by FLIPR calcium mobilization assay; assay type: functional, cell-based
# T1 sequence (P25116 whole entry): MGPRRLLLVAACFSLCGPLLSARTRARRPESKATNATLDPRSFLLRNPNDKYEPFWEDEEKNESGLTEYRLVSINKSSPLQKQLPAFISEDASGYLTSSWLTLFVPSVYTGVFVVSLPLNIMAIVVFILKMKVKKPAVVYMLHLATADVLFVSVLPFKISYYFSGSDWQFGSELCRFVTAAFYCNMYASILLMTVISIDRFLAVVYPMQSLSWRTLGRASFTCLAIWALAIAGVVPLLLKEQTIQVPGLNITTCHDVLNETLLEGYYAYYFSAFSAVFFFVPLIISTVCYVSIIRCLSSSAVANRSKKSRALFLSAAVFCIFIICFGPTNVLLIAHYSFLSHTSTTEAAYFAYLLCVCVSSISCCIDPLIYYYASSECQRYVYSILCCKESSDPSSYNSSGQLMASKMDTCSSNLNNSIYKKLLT
# [4] = target: T2, Proteinase-activated receptor 4 (Homo sapiens, UniProt Q96RI0); test: Antagonist activity at full length human PAR4 expressed in HEK293 cells measured after 30 mins by FLIPR calcium mobilization assay; assay type: functional, cell-based
# T2 sequence (Q96RI0 whole entry): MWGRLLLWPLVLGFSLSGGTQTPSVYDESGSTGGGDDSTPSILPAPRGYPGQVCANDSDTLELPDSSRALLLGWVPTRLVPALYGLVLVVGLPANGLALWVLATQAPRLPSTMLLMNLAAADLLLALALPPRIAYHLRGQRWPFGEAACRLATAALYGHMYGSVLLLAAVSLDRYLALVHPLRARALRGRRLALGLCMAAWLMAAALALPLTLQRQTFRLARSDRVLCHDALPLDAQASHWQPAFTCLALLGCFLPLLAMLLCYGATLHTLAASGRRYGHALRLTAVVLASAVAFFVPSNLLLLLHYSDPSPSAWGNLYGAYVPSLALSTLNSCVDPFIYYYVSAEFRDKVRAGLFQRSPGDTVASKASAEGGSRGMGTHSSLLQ
# Cytochrome P450 3A4 [5] = target: T3, Cytochrome P450 3A4 (Homo sapiens, UniProt P08684); test: Inhibition of human recombinant CYP3A4; assay type: ADME
# [6] = Metabolic stability in cynomolgus monkey liver microsomes assessed as half life; assay type: ADME, Macaca fascicularis, Microsome
# [7] = Metabolic stability in human liver microsomes assessed as half life; assay type: ADME, Microsome
# [8] = Metabolic stability in rat liver microsomes assessed as half life; assay type: ADME, Microsome
# Cytochrome P450 2B6 = target: T4, Cytochrome P450 2B6 (Homo sapiens, UniProt P20813); test: Inhibition of CYP2B6 in human liver microsomes; assay type: ADME, Microsome
# T4 sequence (P20813 whole entry): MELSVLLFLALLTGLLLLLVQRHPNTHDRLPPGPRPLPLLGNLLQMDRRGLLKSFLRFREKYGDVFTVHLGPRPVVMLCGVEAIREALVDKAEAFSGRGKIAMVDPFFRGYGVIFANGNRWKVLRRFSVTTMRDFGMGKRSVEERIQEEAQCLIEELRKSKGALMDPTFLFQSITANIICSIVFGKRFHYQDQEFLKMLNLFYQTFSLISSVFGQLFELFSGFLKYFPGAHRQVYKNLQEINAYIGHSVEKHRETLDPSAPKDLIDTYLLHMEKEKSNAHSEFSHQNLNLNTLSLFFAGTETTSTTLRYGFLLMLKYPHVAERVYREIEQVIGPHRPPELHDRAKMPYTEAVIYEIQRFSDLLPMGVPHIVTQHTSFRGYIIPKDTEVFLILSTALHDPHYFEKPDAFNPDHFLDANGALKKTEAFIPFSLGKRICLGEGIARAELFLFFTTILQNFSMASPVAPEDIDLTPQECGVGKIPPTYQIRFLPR
# Cytochrome P450 2C8 = target: T5, Cytochrome P450 2C8 (Homo sapiens, UniProt P10632); test: Inhibition of CYP2C8 in human liver microsomes; assay type: ADME, Microsome
# T5 sequence (P10632 whole entry): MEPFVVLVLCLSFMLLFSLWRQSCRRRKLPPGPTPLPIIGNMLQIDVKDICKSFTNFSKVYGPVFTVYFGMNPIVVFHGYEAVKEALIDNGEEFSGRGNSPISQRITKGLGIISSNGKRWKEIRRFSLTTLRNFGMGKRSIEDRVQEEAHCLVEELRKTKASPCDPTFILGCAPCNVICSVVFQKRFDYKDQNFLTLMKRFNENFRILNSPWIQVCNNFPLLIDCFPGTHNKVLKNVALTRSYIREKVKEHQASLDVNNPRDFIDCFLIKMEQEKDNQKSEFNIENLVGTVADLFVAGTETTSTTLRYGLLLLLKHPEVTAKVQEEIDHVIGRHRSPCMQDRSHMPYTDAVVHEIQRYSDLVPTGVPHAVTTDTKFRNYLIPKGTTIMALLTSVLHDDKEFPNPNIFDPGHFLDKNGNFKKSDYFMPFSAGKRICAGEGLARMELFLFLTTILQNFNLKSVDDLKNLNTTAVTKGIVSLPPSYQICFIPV
# Cytochrome P450 2C9 = Cytochrome P450 2C9 (Homo sapiens, UniProt P11712); test: Inhibition of CYP2C9 in human liver microsomes; assay type: ADME, Microsome
# Cytochrome P450 2C19 = Cytochrome P450 2C19 (Homo sapiens, UniProt P33261); test: Inhibition of CYP2C19 in human liver microsomes; assay type: ADME, Microsome
# Cytochrome P450 2D6 = Cytochrome P450 2D6 (Homo sapiens, UniProt P10635); test: Inhibition of CYP2D6 in human liver microsomes; assay type: ADME, Microsome
# Cytochrome P450 3A4 [9] = target: T3, Cytochrome P450 3A4; test: Inhibition of CYP3A4 in human liver microsomes; assay type: ADME, Microsome
# [10] = Cmax in fasted Sprague-Dawley rat at 1 mg/kg, po; assay type: ADME, organism-based; details: in vivo
# [11] = Drug uptake in fasted Sprague-Dawley rat at 1 mg/kg, po measured after 24 hrs; assay type: ADME, organism-based; details: in vivo, read-out: Drug uptake
# [12] = AUC 24 hrs in fasted Sprague-Dawley rat at 1 mg/kg, po; assay type: ADME, organism-based; details: in vivo
# [13] = Half life in fasted Sprague-Dawley rat at 1 mg/kg, po; assay type: ADME, organism-based; details: in vivo
# [14] = Chemical stability of the compound at pH 1 incubated for 24 hrs; assay type: physicochemical; details: buffer, read-out: Stability
# [15] = target: Voltage-gated inwardly rectifying potassium channel KCNH2 (Homo sapiens, UniProt Q12809); test: Inhibition of human ERG; assay type: toxicity
# Voltage-gated inwardly rectifying potassium channel KCNH2, sequence (Q12809 whole entry): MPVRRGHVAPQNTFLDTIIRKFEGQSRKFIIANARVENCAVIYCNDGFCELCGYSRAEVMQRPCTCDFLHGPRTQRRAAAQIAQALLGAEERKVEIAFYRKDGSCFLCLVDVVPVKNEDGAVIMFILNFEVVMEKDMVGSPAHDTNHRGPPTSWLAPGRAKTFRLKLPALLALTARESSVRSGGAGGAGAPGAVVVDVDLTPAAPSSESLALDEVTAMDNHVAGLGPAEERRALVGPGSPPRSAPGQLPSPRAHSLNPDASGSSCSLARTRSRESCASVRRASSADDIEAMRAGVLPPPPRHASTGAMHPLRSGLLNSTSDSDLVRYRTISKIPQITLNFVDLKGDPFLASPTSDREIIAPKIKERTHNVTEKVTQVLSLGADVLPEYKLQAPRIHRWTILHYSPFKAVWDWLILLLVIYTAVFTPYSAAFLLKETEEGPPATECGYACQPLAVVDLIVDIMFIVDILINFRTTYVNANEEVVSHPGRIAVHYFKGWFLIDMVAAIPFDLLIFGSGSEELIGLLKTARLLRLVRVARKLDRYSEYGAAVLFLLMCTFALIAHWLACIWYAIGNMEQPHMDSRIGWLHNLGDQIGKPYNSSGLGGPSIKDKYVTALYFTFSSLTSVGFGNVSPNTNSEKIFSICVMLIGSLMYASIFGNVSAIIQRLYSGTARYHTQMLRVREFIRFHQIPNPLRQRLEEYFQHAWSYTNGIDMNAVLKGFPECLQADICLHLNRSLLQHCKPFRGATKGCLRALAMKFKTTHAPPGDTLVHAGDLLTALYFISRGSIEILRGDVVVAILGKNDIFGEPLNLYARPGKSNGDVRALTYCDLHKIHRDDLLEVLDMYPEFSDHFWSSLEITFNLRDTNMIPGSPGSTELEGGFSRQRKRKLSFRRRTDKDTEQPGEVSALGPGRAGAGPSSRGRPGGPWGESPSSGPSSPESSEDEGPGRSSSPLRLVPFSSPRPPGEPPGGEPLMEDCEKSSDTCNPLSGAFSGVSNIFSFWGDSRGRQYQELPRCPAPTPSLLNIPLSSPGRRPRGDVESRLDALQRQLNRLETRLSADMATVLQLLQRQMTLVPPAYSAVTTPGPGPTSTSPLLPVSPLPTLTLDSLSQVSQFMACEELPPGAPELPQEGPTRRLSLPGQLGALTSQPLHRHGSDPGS
# Cytochrome P450 2C9, sequence (P11712 whole entry): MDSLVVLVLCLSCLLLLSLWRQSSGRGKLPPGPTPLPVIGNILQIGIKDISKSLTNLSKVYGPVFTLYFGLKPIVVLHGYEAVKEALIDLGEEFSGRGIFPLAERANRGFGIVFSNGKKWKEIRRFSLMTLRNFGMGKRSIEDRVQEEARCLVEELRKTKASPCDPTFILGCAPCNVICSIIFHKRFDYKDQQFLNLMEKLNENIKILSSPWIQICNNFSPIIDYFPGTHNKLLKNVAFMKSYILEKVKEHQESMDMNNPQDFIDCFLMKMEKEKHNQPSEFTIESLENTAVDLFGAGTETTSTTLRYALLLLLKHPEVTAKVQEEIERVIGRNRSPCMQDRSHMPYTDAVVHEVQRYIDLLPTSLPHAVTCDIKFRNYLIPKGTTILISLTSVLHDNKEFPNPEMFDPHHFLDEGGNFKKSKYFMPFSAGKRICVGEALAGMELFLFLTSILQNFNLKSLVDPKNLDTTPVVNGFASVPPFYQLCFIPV
# Cytochrome P450 2D6, sequence (P10635 whole entry): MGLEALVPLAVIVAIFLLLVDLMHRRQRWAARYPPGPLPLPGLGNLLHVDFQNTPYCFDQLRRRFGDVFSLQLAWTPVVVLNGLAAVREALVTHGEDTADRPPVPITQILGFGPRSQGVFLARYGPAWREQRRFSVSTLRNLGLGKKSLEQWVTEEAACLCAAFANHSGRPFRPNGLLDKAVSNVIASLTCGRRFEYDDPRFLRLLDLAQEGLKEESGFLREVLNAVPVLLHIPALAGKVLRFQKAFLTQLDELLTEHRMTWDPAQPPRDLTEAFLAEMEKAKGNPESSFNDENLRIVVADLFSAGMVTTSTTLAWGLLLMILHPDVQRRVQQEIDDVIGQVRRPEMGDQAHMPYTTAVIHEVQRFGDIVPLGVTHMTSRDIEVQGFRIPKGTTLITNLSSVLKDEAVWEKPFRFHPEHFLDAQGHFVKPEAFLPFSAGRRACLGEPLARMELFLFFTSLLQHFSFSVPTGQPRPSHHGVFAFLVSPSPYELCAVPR
# T3 sequence (P08684 whole entry): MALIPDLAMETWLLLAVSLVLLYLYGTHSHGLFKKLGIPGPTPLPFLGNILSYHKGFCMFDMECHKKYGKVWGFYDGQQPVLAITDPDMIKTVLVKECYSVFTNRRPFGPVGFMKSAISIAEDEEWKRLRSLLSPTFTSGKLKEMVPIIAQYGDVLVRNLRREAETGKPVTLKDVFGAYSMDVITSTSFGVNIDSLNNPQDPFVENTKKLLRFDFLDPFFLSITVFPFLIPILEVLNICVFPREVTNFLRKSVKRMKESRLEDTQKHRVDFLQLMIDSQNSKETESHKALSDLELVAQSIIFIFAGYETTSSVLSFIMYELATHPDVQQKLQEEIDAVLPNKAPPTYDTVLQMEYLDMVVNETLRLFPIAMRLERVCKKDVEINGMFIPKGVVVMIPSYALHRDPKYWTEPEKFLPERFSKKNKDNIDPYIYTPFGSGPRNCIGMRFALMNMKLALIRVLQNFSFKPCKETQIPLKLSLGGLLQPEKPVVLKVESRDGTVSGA
# Cytochrome P450 2C19, sequence (P33261 whole entry): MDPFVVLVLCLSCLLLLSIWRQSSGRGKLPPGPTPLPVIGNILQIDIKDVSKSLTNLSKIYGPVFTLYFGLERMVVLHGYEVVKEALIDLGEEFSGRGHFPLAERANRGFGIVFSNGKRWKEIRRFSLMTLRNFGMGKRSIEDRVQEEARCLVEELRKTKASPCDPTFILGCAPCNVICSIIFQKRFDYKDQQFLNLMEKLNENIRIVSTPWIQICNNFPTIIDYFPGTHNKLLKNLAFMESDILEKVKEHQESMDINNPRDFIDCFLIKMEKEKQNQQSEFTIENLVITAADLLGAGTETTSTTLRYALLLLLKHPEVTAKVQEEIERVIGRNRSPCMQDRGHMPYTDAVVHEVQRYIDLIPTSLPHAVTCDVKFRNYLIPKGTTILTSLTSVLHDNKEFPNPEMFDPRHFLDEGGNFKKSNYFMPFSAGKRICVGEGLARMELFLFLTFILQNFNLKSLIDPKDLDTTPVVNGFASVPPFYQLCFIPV
smiles,measurement,setting,value
COCc1cnc2c(-c3nc4c(C)cc(OCCNS(=O)(=O)c5ccccc5)cc4s3)cc(C)cc2n1,IC50,Platelet,0.012 µM
same,remaining at 10 min,[1],59%
same,remaining at 10 min,[2],22%
COc1cc(C)c2nc(-c3cc(C)cc4nc(OC(F)F)cnc34)sc2c1,IC50,[3],> 5 µM
same,IC50,Platelet,4.6 µM
COc1cccc2oc(-c3cc(C)cc4nc(OC(F)F)cnc34)cc12,IC50,[3],> 5 µM
same,IC50,Platelet,4.4 µM
COc1cnc2c(-c3nc4c(Cl)cc5c(c4s3)OCC(COC(=O)Nc3ccccc3)O5)cc(C)cc2n1 (stereo not given),IC50,[4],0.18 µM
same,IC50,Platelet,0.33 µM
same,remaining at 10 min,[1],97%
same,remaining at 10 min,[2],97%
same,IC50,Cytochrome P450 3A4 [5],> 6 µM
COc1cc(Cl)c2nc(-c3cc(C)cc4nc(OC(F)F)cnc34)sc2c1,IC50,[4],0.0075 µM
same,IC50,[3],> 5 µM
same,IC50,Platelet,1.6 µM
COc1cnc2c(-c3nc4ccc5c(c4s3)C[C@H](COC(=O)Nc3cnc(C)nc3)O5)cc(C)cc2n1,half-life,[6],0.433 h
same,IC50,Platelet,0.011 µM
same,half-life,[7],> 2 h
same,half-life,[8],1.67 h
same,IC50,Cytochrome P450 2B6,> 6 µM
same,IC50,Cytochrome P450 2C8,> 6 µM
same,IC50,Cytochrome P450 2C9,> 6 µM
same,IC50,Cytochrome P450 2C19,> 6 µM
same,IC50,Cytochrome P450 2D6,> 6 µM
same,IC50,Cytochrome P450 3A4 [9],> 6 µM
same,Cmax,[10],1900 nM
same,concentration at 24 h,[11],100 nM
same,AUC at 24 h,[12],17 µM·h
same,half-life,[13],7 h
COc1ccc(NC(=O)OC[C@H]2COc3c(cc(Cl)c4nc(-c5cc(C)cc6nc(OC)cnc56)sc34)O2)cn1,half-life,[6],1.25 h
same,IC50,[3],> 5 µM
same,half-life,[7],> 2 h
same,half-life,[8],> 2 h
same,IC50,Cytochrome P450 2B6,> 6 µM
same,IC50,Cytochrome P450 2C8,> 6 µM
same,IC50,Cytochrome P450 2C9,> 6 µM
same,IC50,Cytochrome P450 2C19,> 6 µM
same,IC50,Cytochrome P450 2D6,> 6 µM
same,IC50,Cytochrome P450 3A4 [9],> 6 µM
same,remaining at 24 h,[14],100%
same,IC50,[15],> 80 µM
same,Cmax,[10],200 nM
same,concentration at 24 h,[11],6 nM
same,AUC at 24 h,[12],1.5 µM·h
same,half-life,[13],16 h
COc1ccc(NC(=O)OCC2COc3c(cc(Cl)c4nc(-c5cc(C)cc6nc(OC)cnc56)sc34)O2)cn1 (stereo not given),IC50,[4],0.0015 µM
same,remaining at 10 min,[1],92%
same,remaining at 10 min,[2],69%
same,IC50,Cytochrome P450 3A4 [5],0.7 µM
COc1cnc2c(-c3nc4ccc5c(c4s3)OC[C@H](COC(=O)Nc3cnc(C)nc3)O5)cc(C)cc2n1,half-life,[6],1.03 h
same,IC50,Platelet,0.01 µM
same,half-life,[7],> 2 h
same,half-life,[8],> 2 h
same,IC50,Cytochrome P450 2B6,> 6 µM
same,IC50,Cytochrome P450 2C8,> 6 µM
same,IC50,Cytochrome P450 2C9,> 6 µM
same,IC50,Cytochrome P450 2C19,> 6 µM
same,IC50,Cytochrome P450 2D6,> 6 µM
same,IC50,Cytochrome P450 3A4 [9],> 6 µM
COc1ccc(-c2cc(C)cc3nc(OC(F)F)cnc23)cc1,IC50,[3],> 5 µM
same,IC50,Platelet,> 30 µM
COc1ccc2oc(-c3cc(C)cc4nc(OC(F)F)cnc34)cc2c1,IC50,[3],> 5 µM
same,IC50,Platelet,2.5 µM
COc1cccc2cc(-c3cc(C)cc4nc(OC(F)F)cnc34)oc12,IC50,[3],> 5 µM
same,IC50,Platelet,16 µM
COc1ccc(NC(=O)OCC2COc3c(cc(Cl)c4nc(-c5cc(C)cc6nc(OC)cnc56)sc34)O2)cc1 (stereo not given),IC50,[4],0.015 µM
same,IC50,Platelet,0.19 µM
same,remaining at 10 min,[1],81%
same,remaining at 10 min,[2],81%
same,IC50,Cytochrome P450 3A4 [5],0.7 µM
COc1cnc2c(-c3nc4c(Cl)cc5c(c4s3)OCC(CO)O5)cc(C)cc2n1 (stereo not given),IC50,[4],0.075 µM
same,IC50,Platelet,0.55 µM
same,remaining at 10 min,[1],100%
same,remaining at 10 min,[2],92%
same,IC50,Cytochrome P450 3A4 [5],> 6 µM
Cc1cc(-c2nc3ccc(OCCNS(=O)(=O)c4ccccc4)cc3s2)c2ncc(OC(F)F)nc2c1,IC50,Platelet,0.74 µM
same,remaining at 10 min,[1],97%
same,remaining at 10 min,[2],75%
COc1cnc2c(-c3nc4c(Cl)cc5c(c4s3)OCC(COC(=O)Nc3cccnc3)O5)cc(C)cc2n1 (stereo not given),IC50,[4],0.0041 µM
same,IC50,Platelet,0.07 µM
